Each block holds one molecule with its values, some of them ahead of it.
Assays:
[1] = target: Urokinase (Homo sapiens, UniProt P00749); test: Urokinase assay (fluorometric, Cbz-Gly-Gly-Arg-AMC substrate); format: biochemical; settings: 24° C, HEPES pH 7.5, 5% DMSO, fluorescence after ten minutes; read-out: IC50 (μM), urokinase inhibition
Procedure: (§1) Urokinase activity was assayed fluorometrically with an aminomethyl coumarin-containing (AMC-containing) substrate according to procedures described in Zimmerman et al, Proc. Natl. Acad. Sci. USA 75:750 (1978), the entire teachings of which are incorporated herein by reference. Specifically, enzyme assays with varying concentrations of the fluorogenic substrate Cbz-Gly-Gly-Arg-AMC were conducted at 24° C. in 0.05 M 4-(2-hydroxyethyl)-piperazineethanesulfonic acid (HEPES) buffer, pH 7.5/5% (vol/vol) dimethyl sulfoxide; the final volume was 0.1 ml in each assay.
Fluorescence was read after ten minutes at 360 nm (activation wavelength) and 460 nm (emission wavelength).

[2] = target: Kallikrein (Homo sapiens, UniProt P03952); test: Kallikrein inhibition assay (fluorometric, H-Pro-Phe-Arg-AMC substrate); format: biochemical; settings: 24° C, HEPES pH 7.5, 5% DMSO, fluorescence after ten minutes
Procedure: as §1, with “Kallikrein” for “Urokinase”, “al.,” for “al,”, “H-Pro-Phe-Arg-AMC” for “Cbz-Gly-Gly-Arg-AMC”, “C” for “C.”, “sulfoxide. The” for “sulfoxide; the”, “assay. Fluorescence was read after ten minutes at 360 nm (activation wavelength) and 460 nm (emission wavelength).” for “assay.”

[3] = test system: ICR derived male or female mice; test: Acetic acid writhing assay; format: in vivo; settings: for % Reduction of Writhes: one hour before acetic acid
Procedure: The analgesic activity of a number of compounds of the present invention were tested in an acetic acid writhing assay disclosed in Inoue et al., Arzneimittel Forschung Drug Research 41:228 (1991), the entire teachings of which are incorporated herein by reference. The test substance was administered intraperitoneally (500, 100 and 20 mg/kg) to groups of 3 ICR derived male or female mice weighing 22±2 g one hour before the injection of acetic acid (3%, 10 ml/kg, IP). Reduction in the number of writhes by 50% or more per group of animals observed during the 5-10 minutes period after acetic acid administration, relative to a vehicle-treated control group (challenge with acetic acid), indicates analgesic activity.

[4] = test system: Long Evans derived male or female rats; test: Carageenan assay (hind paw edema); format: in vivo; settings: for Inhibition (of hind paw edema): 3 hours after carageenan; for Edema: hind paw edema 3 hours after carageenan
Procedure: The assay was performed according to procedures disclosed in Winter et al, Proc. Exper. Biol. Med 111: 544 (1962), the entire teachings of which are incorporated herein by reference. […] Hind paw edema, as a measure of inflammation, was measured 3 hours after carageenan administration using a plethysmometer (Ugo Basile Catalog No. 7150) with water cell (25 mm diameter, Catalog No. 7157). Reduction of hind paw edema by 30% or more indicates significant acute anti-inflammatory activity.

[5] = test system: male rats; test: Rat model of inflammatory bowel disease (DNBS-induced distal colitis); format: in vivo
Procedure: Compounds were tested according to procedures described in C M Hogaboam et al., Eur. J. Pharmacol. 309:261 (1996), the entire teachings of which are incorporated herein by reference. Groups of 3 overnight fasted male rats weighing 150±10 grams were used. Distal colitis was induced by intra-colonic instillation of 0.5 ml/rat of DNBS (2,4-dinitrobenzene sulfonic acid, 60 mg/ml in ethanol 30%) after which air (2 ml) was gently injected through the cannula to ensure that the solution remained in the colon. Test compound was administered orally 24 and 2 hours before DNBS instillation and then daily for 5 days in total of 7 doses. The animals were sacrificed 24 hours after the final dose of test compound administration and each colon was removed and weighed. A 30 percent or more (≧30%) inhibition in net increase of colon to 100 grams body weight ratio, relative to vehicle-control-2 group is considered significant.

[6] = 4 mg/kg PO × 7, with DNBS, rats
[7] = 20 mg/kg PO × 7, with DNBS, rats
[8] = 75 mg/kg PO × 7, with DNBS, rats
[9] = 500 mg/kg PO × 7, with DNBS, rats

Chain of Kallikrein (P03952 whole entry): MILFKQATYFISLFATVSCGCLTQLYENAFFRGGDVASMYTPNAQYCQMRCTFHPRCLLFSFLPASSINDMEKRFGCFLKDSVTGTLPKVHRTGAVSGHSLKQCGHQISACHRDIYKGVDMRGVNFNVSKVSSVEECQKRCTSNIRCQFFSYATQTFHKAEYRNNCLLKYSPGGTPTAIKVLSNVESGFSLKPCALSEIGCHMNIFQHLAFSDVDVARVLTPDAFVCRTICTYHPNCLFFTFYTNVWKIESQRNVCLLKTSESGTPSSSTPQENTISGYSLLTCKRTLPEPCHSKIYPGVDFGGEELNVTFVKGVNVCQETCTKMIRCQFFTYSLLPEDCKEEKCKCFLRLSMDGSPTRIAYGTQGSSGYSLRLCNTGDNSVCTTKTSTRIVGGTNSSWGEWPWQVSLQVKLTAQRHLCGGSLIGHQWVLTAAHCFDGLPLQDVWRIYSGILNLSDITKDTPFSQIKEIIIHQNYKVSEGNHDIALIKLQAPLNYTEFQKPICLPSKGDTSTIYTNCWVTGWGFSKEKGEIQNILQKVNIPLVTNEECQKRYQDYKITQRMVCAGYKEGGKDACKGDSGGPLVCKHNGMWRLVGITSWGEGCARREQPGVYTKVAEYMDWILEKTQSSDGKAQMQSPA

Compound: N#Cc1ccc(C(OC(=O)Cc2c[nH]c3ccccc23)C(=O)NC2CC2)cc1 (stereo not drawn) [Compound (4)]
IC50 [1]: 0.086 µM

Compound: N#Cc1ccc(C(OC(=O)CSc2ncccn2)C(=O)NC2CC2)cc1 (stereo not drawn) [Compound (6)]
IC50 [1]: 0.032 µM

Compound: COc1ccc(CCNC(=O)C(OC(=O)CSc2ncccn2)c2ccc(C#N)cc2)cc1 (stereo not drawn) [Compound (8)]
IC50 [1]: 0.112 µM

Compound: COc1ccc(CC(=O)OC(C(=O)NCc2ccc3c(c2)OCO3)c2ccc(C#N)cc2)cc1 (stereo not drawn) [Compound (10)]
IC50 [1]: 0.783 µM

Compound: COc1ccc(OC)c(C(=O)CCC(=O)OC(C(=O)NCc2cc(OC)c(OC)c(OC)c2)c2ccc(Br)cc2)c1 (stereo not drawn) [Compound (26)]
IC50 [2]: 0.191 µM | % Reduction of Writhes ([3]; 20 mg/kg IP): 25% | % Reduction of Writhes ([3]; 100 mg/kg IP): 58% | % Reduction of Writhes ([3]; 500 mg/kg IP): 75% | significance of response in the acetic acid writhing test (in words) ([3]; both the 500 and 100 mg/kg doses IP): significant response | Inhibition (of hind paw edema) ([4]; 30 mg/kg IP): 0% | Edema ([4]; 30 mg/kg IP): 0.97 mL | Inhibition (of hind paw edema) ([4]; 100 mg/kg IP): 19% | Edema ([4]; 100 mg/kg IP): 0.76 mL | Inhibition (of hind paw edema) ([4]; 300 mg/kg IP): 34% | Edema ([4]; 300 mg/kg IP): 0.62 mL | dose response in the carageenan assay (in words) ([4]; 300, 100 and 30 mg/kg IP): dose responsive activity | statistical significance of response in the carageenan assay (in words) ([4]; highest dose (300 mg/kg) IP): statistically significant response | Ave. (average final weight of the colon in grams) [5, 6]: 1.061 grams | Inhibition (percent inhibition in net increase of colon weight relative to control Group 2) [5, 6]: 0% | Net Inc. (net increase in weight of the colon relative to control Group 1) [5, 6]: 0.574 grams | Ave. (average final weight of the colon in grams) [5, 7]: 0.947 grams | Inhibition (percent inhibition in net increase of colon weight relative to control Group 2) [5, 7]: 17% | Net Inc. (net increase in weight of the colon relative to control Group 1) [5, 7]: 0.460 grams | Ave. (average final weight of the colon in grams) [5, 8]: 0.857 grams | Inhibition (percent inhibition in net increase of colon weight relative to control Group 2) [5, 8]: 33% | Net Inc. (net increase in weight of the colon relative to control Group 1) [5, 8]: 0.370 grams | dose response in the rat model of inflammatory bowel disease (in words) ([5]; 75, 20 and 4 mg/kg PO × 7, rats): dose responsive activity | statistical significance of response in the rat model of inflammatory bowel disease (in words) ([5]; highest dose (75 mg/kg) PO × 7, rats): statistically significant response | activity in a rat model of inflammatory bowel disease (in words) ([5]; summary statement): activity

Compound: COc1ccc(CC(=O)OC(C(=O)Nc2ccc(OC)c(OC)c2)c2ccc(C#N)cc2)cc1 (stereo not drawn) [Compound (41)]
IC50 [1]: 2.32 µM

Compound: COc1ccc(CC(=O)OC(C(=O)NCc2cc(OC)c(OC)c(OC)c2)c2ccc(C#N)cc2)cc1 (stereo not drawn) [Compound (42)]
IC50 [1]: 1.97 µM

Compound: COc1ccc(CCNC(=O)C(OC(=O)CSc2ncccn2)c2ccc(OC)cc2)cc1 (stereo not drawn) [Compound (47)]
IC50 [1]: 2.38 µM

Compound: COc1ccc(CCNC(=O)C(OC(=O)CSc2ncccn2)c2ccc(C(F)(F)F)cc2)cc1 (stereo not drawn) [Compound (48)]
IC50 [1]: 5.38 µM

Compound: COc1ccc(CCNC(=O)C(OC(=O)Cc2ccc(OC)cc2)c2ccc(C#N)cc2)cc1 (stereo not drawn) [Compound (51)]
IC50 [1]: 1.22 µM

Compound: N#Cc1ccc(C(OC(=O)CCC2CCCCC2)C(=O)NC2CC2)cc1 (stereo not drawn) [Compound (56)]
IC50 [1]: 0.055 µM

Compound: COc1ccc2c(c1)c(CC(=O)O)c(C)n2C(=O)c1ccc(Cl)cc1 [Indomethacin, reference compound]
Inhibition (of hind paw edema) ([4]; 10 mg/kg IP): 53% | Edema ([4]; 10 mg/kg IP): 0.44 mL

Compound: O=C(O)c1cc(/N=N/c2ccc(S(=O)(=O)Nc3ccccn3)cc2)ccc1O [Sulfasalazine, reference compound]
Ave. (average final weight of the colon in grams) [5, 9]: 0.865 grams | Inhibition (percent inhibition in net increase of colon weight relative to control Group 2) [5, 9]: 32% | Net Inc. (net increase in weight of the colon relative to control Group 1) [5, 9]: 0.378 grams

Further lines, with some results ahead:

IC50 [1]: 0.029 µM
Compound: N#Cc1ccc(C(OC(=O)Cc2c[nH]c3ccc(Br)cc23)C(=O)NC2CC2)cc1 (stereo not drawn) [Compound (5)]

IC50 [1]: 0.11 µM
Compound: COc1ccc(CC(=O)OC(C(=O)NC2CC2)c2ccc(C#N)cc2)cc1 (stereo not drawn) [Compound (7)]

IC50 [1]: 0.923 µM
Compound: COc1cc(CNC(=O)C(OC(=O)CSc2ncccn2)c2cccc(C#N)c2)cc(OC)c1OC (stereo not drawn) [Compound (9)]

IC50 [2]: 0.247 µM
Compound: COc1ccc(OC)c(C(=O)CCC(=O)OC(C(=O)NCc2cc(OC)c(OC)c(OC)c2)c2ccc3ccccc3c2)c1 (stereo not drawn) [Compound (24)]
% Reduction of Writhes ([3]; 20 mg/kg IP): 0% | % Reduction of Writhes ([3]; 100 mg/kg IP): 25% | % Reduction of Writhes ([3]; 500 mg/kg IP): 83%

IC50 [2]: 0.364 µM
Compound: COc1cc(CNC(=O)C(OC(=O)CCOc2ccccc2)c2ccc(Br)cc2)cc(OC)c1OC (stereo not drawn) [Compound (27)]
% Reduction of Writhes ([3]; 20 mg/kg IP): 8% | % Reduction of Writhes ([3]; 100 mg/kg IP): 25% | % Reduction of Writhes ([3]; 500 mg/kg IP): 92%

IC50 [2]: 0.31 µM
Compound: COc1ccc(NC(=O)C(OC(=O)CSc2ncccn2)c2ccc(Br)cc2)cc1OC (stereo not drawn) [Compound (29)]
% Reduction of Writhes ([3]; 20 mg/kg IP): 17% | % Reduction of Writhes ([3]; 100 mg/kg IP): 33% | % Reduction of Writhes ([3]; 500 mg/kg IP): 83%

IC50 [1]: 6.09 µM
Compound: COc1cc(CNC(=O)C(OC(=O)CCOc2ccccc2)c2cccc(C#N)c2)cc(OC)c1OC (stereo not drawn) [Compound (40)]

IC50 [1]: 3.39 µM
Compound: COc1ccc(NC(=O)C(OC(=O)CSc2ncccn2)c2ccc(Br)cc2)cc1OC (stereo not drawn) [Compound (43)]

IC50 [1]: 1.78 µM
Compound: COc1cc(CNC(=O)C(OC(=O)CCC2CCCCC2)c2cccc(C#N)c2)cc(OC)c1OC (stereo not drawn) [Compound (44)]

IC50 [1]: 1.41 µM
Compound: COc1ccc(CCNC(=O)C(OC(=O)CSc2ncccn2)c2ccc(Br)cc2)cc1 (stereo not drawn) [Compound (45)]

IC50 [1]: 2.93 µM
Compound: COc1ccc(CCNC(=O)C(OC(=O)CSc2ncccn2)c2ccc3ccccc3c2)cc1 (stereo not drawn) [Compound (46)]

IC50 [1]: 1.37 µM
Compound: COc1ccc(C(OC(=O)CSc2ncccn2)C(=O)NCc2ccc3c(c2)OCO3)cc1 (stereo not drawn) [Compound (49)]

IC50 [1]: 3.1 µM
Compound: O=C(CSc1ncccn1)OC(C(=O)NCc1ccc2c(c1)OCO2)c1ccc(C(F)(F)F)cc1 (stereo not drawn) [Compound (50)]

IC50 [1]: 0.628 µM
Compound: CCSCCNC(=O)C(OC(=O)Cc1ccc(OC)cc1)c1ccc(C#N)cc1 (stereo not drawn) [Compound (52)]

IC50 [1]: 1.06 µM
Compound: CCOC(=O)CCNC(=O)C(OC(=O)Cc1ccc(OC)cc1)c1ccc(C#N)cc1 (stereo not drawn) [Compound (53)]

IC50 [1]: 0.814 µM
Compound: COc1ccc(CC(=O)OC(C(=O)NC2CC2)c2ccccc2)cc1 (stereo not drawn) [Compound (54)]

IC50 [1]: 0.151 µM
Compound: N#Cc1ccc(C(OC(=O)CCC2CCCC2)C(=O)NC2CC2)cc1 (stereo not drawn) [Compound (55)]

Reference: patent US20040044075A1, “Alpha acyloxyacetamides for kallikrein and urokinase inhibition” (Genzyme Corporation, priority 2002, published 2004)
